Key:
[1] = biological target: T1, CRTH2 (DP2) (Homo sapiens, UniProt Q9Y5Y4); test: Radioligand binding Scintillation Proximity Assay ([3H]PGD2, hCRTH2-CHO cell membranes); conditions: 1.5 nM [3H]PGD2, hCRTH2-CHO cell membranes, SPA
T1 construct: host or cells: CHO cells
T1 sequence (Q9Y5Y4 1-395): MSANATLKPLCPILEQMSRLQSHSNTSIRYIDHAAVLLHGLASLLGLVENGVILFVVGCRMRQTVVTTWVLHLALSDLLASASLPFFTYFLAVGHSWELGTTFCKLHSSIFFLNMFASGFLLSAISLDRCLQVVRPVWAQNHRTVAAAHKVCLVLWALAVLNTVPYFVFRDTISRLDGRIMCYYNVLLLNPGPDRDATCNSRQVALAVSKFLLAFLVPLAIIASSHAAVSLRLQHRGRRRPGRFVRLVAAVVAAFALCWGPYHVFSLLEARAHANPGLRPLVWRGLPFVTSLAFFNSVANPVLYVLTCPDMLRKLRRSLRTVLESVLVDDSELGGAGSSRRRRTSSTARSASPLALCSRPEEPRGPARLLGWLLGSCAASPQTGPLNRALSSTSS
How it was run: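 Membranes from CHO cells stably expressing human CRTH2, made by nitrogen cavitation and differential centrifugation. Compounds competed with [3H]PGD2 at 1% DMSO for 90 min with agitation at room temperature. Non-specific binding taken with 10 μM PGD2.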

[2] = system: eosinophils (PGD2-induced cell shape change); test: PGD2-induced eosinophil cell shape assay in human whole blood; type: cell-based; conditions: 10 nM PGD2 final
Experimental: The Compounds of Formula (I) were diluted in dimethylsulphoxide so that the total volume of dimethylsulfoxide was kept constant at 2% dimethylsulphoxide (Me2SO). Serial dilutions of 200 μM to 0.09 μM were prepared. Samples of 90 μl of human blood from healthy volunteers (Centre de Transfusion Sanguine de Genéve) were pre-incubated in polypropylene Falcon tubes (BD 352063) for 20 minutes in a water bath at 37° C. with 10 μl of diluted compounds. For CRTH2 activation, 100 μl PGD2 (Cayman 12010) at 20 nM was added (10 nM final) to each tube and cells were maintained at 37° C. For negative control cells were treated with PBS. After 10 minutes, cell activation was stopped with 120 μl Formaldehyde 10% (4% final, Fluka 41650) and cells were rested for 10 minutes at room temperature. Fixed cells were transferred into polypropylene tubes and then treated for 1 hour in a water bath at 37° C. with 2 ml of Triton-Surfact-Amps X-100 (Pierce 28314) at 0.166% (0.13% Triton final). After several washes with PBS (red cells lysed progressively during washes, two washes are necessary), cells were analyzed by flow cytometry on a FACSCalibur. In one embodiment, the compounds of Formula (I) of the present invention are capable of blocking the cell shape change of eosinophils induced by PGD2 in Whole Blood.

[3] = biological target: T2, CRTH2 (Homo sapiens, UniProt Q9Y5Y4); test: Cellular Dielectric Spectroscopy in CHO-CRTH2 cells; type: cell-based; conditions: fixed concentration of PGD2 (EC80), read-out: IC50(μM) (CDS, antagonist)
T2 construct: expressed in transfected cells; host or cells: CHO cells
T2 sequence (Q9Y5Y4 1-395): T1 sequence (Q9Y5Y4 1-395)
Experimental: Cellular Dielectric Spectroscopy (CDS) is a label-free technology based on the measurement of complex impedance changes (delta Z or dZ). Impedance (Z) is related to the ratio of voltage to current as described by Ohm's law (Z=V/I). In order to measure the changes in impedance that occur in response to receptor stimulation, mammalian cells are seeded onto a custom 96-well microtiter plate that contains electrodes at the bottom of each well Key contributors to the impedance measurements are changes in cell-substrate adherence, changes in cell shape and volume, and changes in cell-cell interactions. These factors individually or collectively affect the flow of current, influencing the magnitude and characteristics of the signal measured. G-protein coupled receptors ligand-induced activity can be measured using this technology and specific G protein coupling can be identified. Activities of reference agonist and antagonist molecules of CRTH2 have been measured using this assay and similar results were obtained compared to different functional assays.
CHO—CRTH2 cells are cultured in HAM's F12 (Lonza, Switzerland) supplemented with 10% foetal calf serum (PAA, Australia) and 400 μg/ml Geneticin. 100000 cells/well are seeded in standard 96 W Microplates (MDS Analytical Technologies) and incubated at 37° C. in 5% CO2 for 24 hours. Cells are washed twice with 135 μl of cell key buffer (Hank's Balanced Salt Solution 1× (HBSS) (Invitrogen) supplemented with 10 mM HEPES pH 7.4 in presence of 1% DMSO). […] Results are expressed as the amplitude between the highest and the lowest signal produced (max-min). Basal and maximum activities are measured, respectively in absence or presence of PGD2 (EC80).

[4] = biological target: T2, CRTH2; test: [35S]GTPγS binding assay on CHO-CRTH2 cell membranes; type: biochemical; conditions: without addition of PGD2; 100% of Emax being the activity measured by the addition of 1 μM of PGD2
Experimental: Adherent CHO cells expressing hCRTH2 (Euroscreen, Belgium) were cultured in 225 cm^2 cell culture flasks (Corning, USA) in 30 ml of medium. After two rinses of phosphate buffered saline (PBS), cells were harvested in 10 ml of PBS containing 1 mM EDTA, centrifuged at 500×g for 5 min at 4° C. and frozen at −80° C. The pellet was re-suspended in 50 mM Tris-HCl, pH 7.4, 2 mM EDTA, 250 mM Sucrose, containing protease inhibitor cocktail tablets, (Complete EDTA-free, Roche, Germany) and incubated 30 min at 4° C. Cells were disrupted by nitrogen cavitation (Parr Instruments, USA) at 4° C. (800 p.s.i. for 30 min), and centrifuged at 500×g for 10 min at 4° C. Pellet containing nuclei and cellular debris was discarded and supernatant was centrifuged 60 min at 4° C. at 45000×g. Membrane pellet was re-suspended in storage buffer (10 mM HEPES/KOH pH 7.4, 1 mM EDTA, 250 mM sucrose, protease inhibitor cocktail tablets) using Dounce homogenization and frozen in liquid nitrogen, and stored at 80° C.
The [^35S]GTPγS assay measures the increase in guanine nucleotide exchange at G-proteins in cell membranes, resulting from agonist (PGD2) binding to CRTH2. […] Briefly, Compounds of Formula (I) are incubated in 96-well scintillating white polystyrene plates (Perkin Elmer, USA) in a final volume of 200 μl containing 20 mM HEPES/KOH pH 7.4, 3 mM MgCl2, 10 μg/ml Saponin, 5 μM GDP, 75 mM NaCl and 2% of dimethylsulphoxide (DMSO). […] After 60 min incubation at 30° C., reaction is stopped by centrifugation at 700×g, at 4° C. for 10 minutes and supernatant is removed. […] For IC50 determination, increasing concentrations of compounds are incubated in presence of a fixed concentration of PGD2 (EC80). For EC50 measurements, compounds are incubated without addition of PGD2. Basal [^35S]GTPγS activity is determined without addition of any ligands or compounds. 100% [^35S]GTPγS activity is measured by the addition of 1 μM of PGD2.

[5] = In vivo pharmacokinetic evaluation in mouse; conditions: mice
Experimental: In order to study the pharmacokinetic (PK) profile of test compounds in vivo, Sprague Dawley male rats or C57BL/6 female mice were dosed intravenously or after oral gavage. For both species, test compounds were dosed in solution at 1 mg/kg for i.v. route (10% ethanol, 10% N,N-dimethylacetamide, 30% propylene glycol, 50% water, v/v) and in suspension at 5 mg/kg (0.5% carboxymethylcellulose suspension, containing 0.25% Tween 20 in water) for oral gavage. PK profile in rat was obtained from 3 animals per dosing route and mouse PK profile was determined from 3 animals for each time points. The volume of administration was 2 mL/kg for i.v. dosing in both species and either 5 mL/kg (rat) or 10 mL/kg (mouse) for oral gavage. Blood samples (100 μL/time point) were collected at 0.083 (5 min), 0.25, 0.5, 1, 4, 7 and 24 hours post-dose for i.v. dosing, and at 0.5, 1, 4, 7 and 24 h for oral dosing, into heparin-Li+ containing tubes. For rats, all blood samples were collected trough a catheter in the carotid artery (placed in the artery the day before the experiment), under light isoflurane anesthesia, and stored on ice until centrifugation and plasma isolation. For mouse, blood samples were collected from intracardiac puncture at sacrifice at each time point and processed as described above for the rat. Plasma samples were stored frozen until analysis (−20° C. to −70° C.). For bioanalysis, samples were processed by protein precipitation (acetonitrile, formic acid 0.1%, addition of 3 volumes) after addition of one internal standard and analysed using a sensitive and selective LC/MS/MS method. An aliquot of the resulting supernatant was subject to LC/MS/MS analysis using a reverse phase column (Waters Xterra, C8, (3.5 μm particle size, 2.1×50 mm) and a short gradient (1 min) from (Solvent A) 85% water, 15% acetonitrile and 0.1% formic acid to (Solvent B) 90% acetonitrile, 10% water and 0.1% formic acid followed by isocratic conditions of Solvent B for 3.5 min at 0.4 mL/min. Column effluent was monitored using a Sciex API 4000 triple quadrupole mass spectrometer with a Turbo V electrospray ion source. Unknown concentrations of test compounds were determined using a calibration curve ranging from 1 to 3000 ng/mL.

Structure (SMILES) | IC50 [1] | IC50 [2] | Emax [4] | further results
CCCCC(=O)N(Cc1ccc2c(c1)OCCO2)c1cccc(-c2nnn[nH]2)c1 [Example 5, N-(2,3-dihydro-1,4-benzodioxin-6-ylmethyl)-N-[3-(1H-tetrazol-5-yl)phenyl]pentanamide] | 8.8 nM | 0.536 µM | – | IC50 [3]: 0.076 µM
CCC(=O)N(Cc1ccc2c(c1)OCCO2)c1cc(-c2nnn[nH]2)ccc1F [Example 9, N-(2,3-dihydro-1,4-benzodioxin-6-ylmethyl)-N-[2-fluoro-5-(1H-tetrazol-5-yl)phenyl]propanamide] | 15 nM | 1.17 µM | – | –
CCCCC(=O)N(Cc1ccc2c(c1)OCCO2)c1cc(F)cc(-c2nnn[nH]2)c1 [Example 11, N-(2,3-dihydro-1,4-benzodioxin-6-ylmethyl)-N-[3-fluoro-5-(1H-tetrazol-5-yl)phenyl]pentanamide] | 2.3 nM | 0.039 µM | -14.9% | –
CCCCC(=O)N(Cc1cccc(OC)c1)c1cccc(-c2nnn[nH]2)c1 [Example 13, N-(3-methoxybenzyl)-N-[3-(1H-tetrazol-5-yl)phenyl]pentanamide] | 53 nM | 0.914 µM | – | –
CCCCC(=O)N(Cc1ccc(OC)cc1)c1cc(Cl)cc(-c2nnn[nH]2)c1 [Example 46, N-[3-chloro-5-(1H-tetrazol-5-yl)phenyl]-N-(4-methoxybenzyl)pentanamide] | 4.2 nM | 0.245 µM | -9.5% | –
CCC(=O)N(Cc1ccc(OC(F)(F)F)c(Cl)c1)c1cc(F)cc(-c2nnn[nH]2)c1 [Example 56, N-[3-chloro-4-(trifluoromethoxy)benzyl]-N-[3-fluoro-5-(1H-tetrazol-5-yl)phenyl]propanamide] | 24 nM | 0.082 µM | -13% | clearance ([5]; female, C57BL/6, mouse, plasma, iv, i.v. 1 mg/Kg): 15 mL/min/kg; AUC ([5]; female, C57BL/6, mouse, plasma, oral gavage 5 mg/Kg): 1910 ng·h/mL; bioavailability ([5]; female, C57BL/6, mouse, plasma, po 5 mg/Kg vs iv 1 mg/Kg): 36%
CCC(=O)N(Cc1ccc(OC(F)(F)F)cc1)c1cc(Cl)cc(-c2nnn[nH]2)c1 [Example 57, N-[3-chloro-5-(1H-tetrazol-5-yl)phenyl]-N-[4-(trifluoromethoxy)benzyl]propanamide] | 15 nM | 0.233 µM | – | melting point: 144 °C
CCC(=O)N(Cc1ccc(C(F)(F)F)cc1)c1cc(F)cc(-c2nnn[nH]2)c1 [Example 58, N-[3-fluoro-5-(1H-tetrazol-5-yl)phenyl]-N-[4-(trifluoromethyl)benzyl]propanamide] | 7.1 nM | 0.102 µM | -8.1% | Clearance iv (1 mg/Kg) ([5]; i.v. 1 mg/Kg): 5 mL/min/kg; AUC po (5 mg/Kg) ([5]; oral gavage 5 mg/Kg): 11212 ng·h/mL; Oral bioavailability ([5]; po 5 mg/Kg vs iv 1 mg/Kg): 76%

Source: patent US20120115869A1, “TETRAZOLE DERIVATIVES” (MERCK SERONO S.A., priority 2009, published 2012)
